Source: patent publication US8309546B2, “Morpholinopurine derivatives” (Daiichi Sankyo Company, Limited, priority 2008, dated 2012)

Columns and labels:
[1] = target: T1, human mTOR (His-tagged mTOR (1362C)) (Homo sapiens, UniProt P42345); assay: mTOR kinase activity inhibition assay; assay type: biochemical; conditions: HTRF, read-out: IC50 against mTOR
T1 construct: the 1362 to 2549 amino acid portion on the C terminus side of human mTOR; His tag (N); made in house
Outline: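 Crude His-tagged mTOR (aa 1362–2549) from stable HEK293 cells, with 8 μg/ml biotinylated peptide in 50 mM HEPES pH 7.5, 20 mM MnCl2; compound diluted in 20 μM ATP solution, reaction 3 h at room temperature. Phospho-peptide detected by HTRF (anti-phospho-S6K Thr389 cryptate/streptavidin-XL665, overnight at 4°C), 665/620 nm ratio. IC50 derived from curve fit of % inhibition.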

[2] = tested on: human ovary cancer cell strain IGROV1; assay: Cell growth inhibition test (MTT), IGROV1; assay type: cell-based; conditions: IGROV-1, 72 h, IGROV1, 3 days culture, read-out: concentration exhibiting anti-cell effect (GI50)
Outline: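 MTT read-out at 540 nm after 4 h formazan formation gives living cell count following 3-day compound exposure at 37° C, 5% CO2. Seeding: 5000 AN3CA, 1000 IGROV1, 5000 HT29 cells/well. Growth rate T/C % = 100×[(B−C)/(A−C)], with C taken before dosing; GI50 = concentration giving 50% growth.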

T1 sequence (P42345 1362-2549): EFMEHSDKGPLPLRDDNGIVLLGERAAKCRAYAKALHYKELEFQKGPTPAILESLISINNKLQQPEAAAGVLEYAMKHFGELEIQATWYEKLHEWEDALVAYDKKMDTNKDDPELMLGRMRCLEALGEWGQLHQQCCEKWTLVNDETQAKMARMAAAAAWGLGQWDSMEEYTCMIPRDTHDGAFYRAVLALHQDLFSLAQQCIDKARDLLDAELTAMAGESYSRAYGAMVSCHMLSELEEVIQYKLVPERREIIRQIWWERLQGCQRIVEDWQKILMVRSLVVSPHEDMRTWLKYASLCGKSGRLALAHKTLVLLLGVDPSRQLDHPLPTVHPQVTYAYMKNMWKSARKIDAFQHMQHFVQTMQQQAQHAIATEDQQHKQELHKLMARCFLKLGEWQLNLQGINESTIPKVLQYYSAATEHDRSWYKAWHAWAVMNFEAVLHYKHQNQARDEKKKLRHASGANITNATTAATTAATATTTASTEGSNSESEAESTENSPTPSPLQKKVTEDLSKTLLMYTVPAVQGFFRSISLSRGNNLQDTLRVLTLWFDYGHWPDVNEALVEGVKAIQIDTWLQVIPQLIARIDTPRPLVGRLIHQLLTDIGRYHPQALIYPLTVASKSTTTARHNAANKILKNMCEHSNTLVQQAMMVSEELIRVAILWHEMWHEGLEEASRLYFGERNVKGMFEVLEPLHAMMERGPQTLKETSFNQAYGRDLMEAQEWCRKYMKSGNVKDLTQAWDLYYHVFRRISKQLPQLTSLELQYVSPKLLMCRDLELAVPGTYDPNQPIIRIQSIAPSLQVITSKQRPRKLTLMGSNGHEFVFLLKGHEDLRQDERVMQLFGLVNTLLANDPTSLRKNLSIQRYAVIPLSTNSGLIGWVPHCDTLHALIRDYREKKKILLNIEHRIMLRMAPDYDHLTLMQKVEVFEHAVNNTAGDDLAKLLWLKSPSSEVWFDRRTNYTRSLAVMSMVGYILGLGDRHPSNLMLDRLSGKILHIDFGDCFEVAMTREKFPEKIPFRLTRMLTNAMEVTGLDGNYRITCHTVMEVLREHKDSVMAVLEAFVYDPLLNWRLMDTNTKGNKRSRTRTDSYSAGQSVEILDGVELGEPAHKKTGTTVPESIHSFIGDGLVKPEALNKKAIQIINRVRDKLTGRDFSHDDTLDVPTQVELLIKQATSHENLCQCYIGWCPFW

IC50 [1] [nM] | GI50 [2] [nM] | SMILES
10 to 30 | ≤ 5000 | CC(C)Cn1c(N2CCN(C=O)CC2)nc2c(N3CCOC[C@@H]3C)nc(-c3cnc(N)nc3)nc21 [Example 132, 4-{2-(2-Aminopyrimidin-5-yl)-9-isobutyl-6-[(3S)-3-methylmorpholin-4-yl]-9H-purin-8-yl}piperazine-1-carboaldehyde]
< 10 | ≤ 5000 | CNc1ncc(-c2nc(N3CCOCC3)c3nc(N4CCN(C(C)=O)CC4)n(CC(F)(F)F)c3n2)cn1 [Example 134, 5-[8-(4-Acetylpiperazin-1-yl)-6-morpholin-4-yl-9-(2,2,2-trifluoroethyl)-9H-purin-2-yl]-N-methylpyrimidin-2-amine]

More lines, now with the values behind:

SMILES | IC50 [1] [nM] | GI50 [2] [nM]
CC(=O)N1CCN(c2nc3c(N4CCOC[C@@H]4C)nc(-c4cnc(N)nc4C)nc3n2CC2CC2)CC1 [Example 128, 5-{8-(4-acetylpiperazin-1-yl)-9-(cyclopropylmethyl)-6-[(3S)-3-methylmorpholin-4-yl]-9H-purin-2-yl}-4-methylpyrimidin-2-amine] | 100 to 500 | ≤ 5000
CC(=O)N1CCN(c2nc3c(N4CCOC[C@@H]4C)nc(-c4cnc(N)nc4)nc3n2CC(C)C)CC1 [Example 129, 5-{8-(4-Acetylpiperazin-1-yl)-9-isobutyl-6-[(3S)-3-methylmorpholin-4-yl]-9H-purin-2-yl}pyrimidin-2-amine] | 10 to 30 | ≤ 5000
CC(C)Cn1c(N2CCN(C(=O)CO)CC2)nc2c(N3CCOC[C@@H]3C)nc(-c3cnc(N)nc3)nc21 [Example 130, 2-(4-{2-(2-Aminopyrimidin-5-yl)-9-isobutyl-6-[(3S)-3-methylmorpholin-4-yl]-9H-purin-8-yl}piperazin-1-yl)-2-oxoethanol] | < 10 | ≤ 5000
CC(C)Cn1c(N2CCN(C(=O)[C@H](C)O)CC2)nc2c(N3CCOC[C@@H]3C)nc(-c3cnc(N)nc3)nc21 [Example 131, (2S)-1-(4-{2-(2-Aminopyrimidin-5-yl)-9-isobutyl-6-[(3S)-3-methylmorpholin-4-yl]-9H-purin-8-yl}piperazin-1-yl)-1-oxopropan-2-ol] | 10 to 30 | ≤ 5000
